Data published in paper PMC11510591, “In Vitro Evaluation of Pharmacokinetic Properties of Selected Dual COX-2 and 5-LOX Inhibitors” (Pharmaceuticals, 2024).

Assays:
[1] = tested on: CD-1 mouse liver microsomes; conditions: pH 7.4; for Peak Area, t0: 0 min
Protocol: Microsomal stability (and thus susceptibility to metabolism) was tested using microsomes derived from CD-1 mouse liver. According to the applied protocol, both phases of metabolism were activated by the addition of cofactors NADPH and UDP-GlcUA. […] Stock solutions of all tested compounds (5 mM DMSO solutions) were diluted with 0.1 M potassium phosphate buffer pH 7.4 to obtain 0.1 mM solutions, which were further incubated according to the protocol. In order to activate both the 1st and 2nd phases of metabolism, NADPH and UDP-GlcUA were used as cofactors. Tested compounds were incubated at 37 °C for 30 min, and the incubation was quenched immediately after the addition of cofactors (t0) and after the defined incubation time (t) by mixing 100 µL of corresponding incubation mixtures with 200 µL of cold acetonitrile. All compounds were tested in duplicates, and their concentrations were determined using the HPLC-MS/MS method (Section 3.7.1).
The HPLC-MS/MS analysis was performed on the UHPLC chromatograph ACELLA (Thermo Fisher Scientific Inc., Madison, WI, USA), coupled to a triple quadrupole mass spectrometer TSQ Quantum Access MAX (Thermo Fisher Scientific Inc., Madison, WI, USA) with a heated electrospray ionization (HESI) interface. The column used was Zorbax Extend C18 (150 mm × 4.6 mm, 5 µm; Agilent Technologies), which was thermostated at 25 °C. The mobile phase consisted of acetonitrile and 0.1% formic acid (60:40, v/v), with a flow rate of 500 µL/min. The injection volume was 10 µL.

[2] = target: T1, human serum albumin (HSA) (Homo sapiens, UniProt P02768); assay type: binding; conditions: CHIRALPAK HSA column, ammonium acetate buffer pH 7.0/acetonitrile 85:15, 25 °C
T1 construct: purchased Sigma-Aldrich
Protocol: Recently, interactions of many newly synthesized structurally diverse compounds with HSA were successfully studied using this technique. The degree of binding of the tested compounds to HSA was evaluated based on their retention behavior on the stationary phase modified with HSA. The logarithmic values of retention factors (logk) were used to evaluate indirectly and compare the drug–HSA interaction.
HPAC analysis was performed on an Agilent 1200 Series chromatograph (Agilent Technologies, Santa Clara, CA, USA). […] The mobile phase consisted of ammonium acetate buffer (pH 7.0; 0.01 M) and acetonitrile (85:15, v/v). The flow rate was 0.6 mL/min, the temperature was set to 25 °C, and the detection of tested compounds was carried out at 283 nm. Tested compounds were dissolved in DMSO (at a concentration of 1 mg/mL), further diluted with the mobile phase to a final concentration of 0.05 mg/mL, and analyzed in triplicate. The HPAC conditions were selected not only with the aim of achieving satisfactory retention characteristics of all synthesized compounds but also taking into account recommendations of a column manufacturer. Retention factors were calculated using Equation (1), where t0 (column dead time) was the retention time of DMSO at 220 nm.

zebrafish embryos = tested on: zebrafish embryos; parameters: method as in PMID 38931946; conditions: at therapeutic doses; cited from earlier work

T1 sequence (P02768 25-609): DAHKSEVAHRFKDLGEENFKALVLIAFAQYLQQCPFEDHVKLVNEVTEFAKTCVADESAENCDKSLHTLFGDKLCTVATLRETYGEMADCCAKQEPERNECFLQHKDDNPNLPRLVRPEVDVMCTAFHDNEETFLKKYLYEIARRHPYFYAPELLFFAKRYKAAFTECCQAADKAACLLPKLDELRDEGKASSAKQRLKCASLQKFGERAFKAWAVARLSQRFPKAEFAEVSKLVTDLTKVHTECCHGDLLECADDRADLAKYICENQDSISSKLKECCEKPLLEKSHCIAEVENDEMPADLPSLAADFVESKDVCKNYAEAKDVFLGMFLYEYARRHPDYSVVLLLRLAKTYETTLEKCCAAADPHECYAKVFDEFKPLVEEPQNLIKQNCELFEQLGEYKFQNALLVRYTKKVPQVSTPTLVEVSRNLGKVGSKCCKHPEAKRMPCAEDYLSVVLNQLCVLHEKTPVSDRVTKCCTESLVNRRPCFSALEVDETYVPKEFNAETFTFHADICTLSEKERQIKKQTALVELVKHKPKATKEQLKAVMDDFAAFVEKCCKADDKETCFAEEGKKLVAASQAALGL

Row | Compound | Peak Area, t0 [1] | Peak Area, t ([1]; 30 min) | Retention Factors (logk) [2] | The Decrease in Peak Area (%) ([1]; 30 min) | toxic effects on zebrafish embryos (zebrafish embryos)
1 | CC(=O)N(O)C(C)c1ccc(CC(C)C)cc1 (stereo not shown) [Compound 11] | 60.0 ± 1.4 ×10^3 | 44.6 ± 1.9 ×10^3 | – | – | –
2 | O=C(NO)NCc1ccccc1Nc1c(Cl)cccc1Cl [Compound 3] | 1033.6 ± 42.5 ×10^3 | 455.5 ± 8.9 ×10^3 | – | – | did not show toxic effects

The next lines start with results.

Row | Peak Area, t0 [1] | Peak Area, t ([1]; 30 min) | Retention Factors (logk) [2] | The Decrease in Peak Area (%) ([1]; 30 min) | Compound | toxic effects on zebrafish embryos (zebrafish embryos)
3 | 43.9 ± 3.2 ×10^3 | 18.2 ± 0.1 ×10^3 | 2.03 ± 0.02 | – | COc1ccc2cc(C(C)N(O)C(C)=O)ccc2c1 (stereo not shown) [Compound 12] | –
4 | 131.5 ± 16.8 ×10^3 | 60.5 ± 6.4 ×10^3 | – | – | COc1ccc2c(c1)c(CNC(=O)NO)c(C)n2C(=O)c1ccc(Cl)cc1 [Compound 1] | –
5 | 16.5 ± 3.1 ×10^3 | 9.6 ± 3.0 ×10^3 | – | 41.65 (p = 0.0034) % | CC(NC(=O)NO)c1ccc(-c2ccccc2)c(F)c1 (stereo not shown) [Compound 2] | –
